Measurements published in ChEMBL document CHEMBL4813973, “Discovery of novel N-benzylbenzamide derivatives as tubulin polymerization inhibitors with potent antitumor activities” (Eur J Med Chem, 2021).
In brackets after ≈: the same amount, converted by molar mass. Activity calls are given as the source filed them. The rule behind the calls is not given here.

Assays:
A-431 [1] = assay: Induction of apoptosis in human A-431 cells assessed as nuclear fragmentation at 7.5 to 30 nM incubated for 48 hrs by Hoechst33342 staining based fluorescent microscopy; type: functional, cell-based; conditions: dose 7.5-30 nM
Bel-7402 = assay: Antiproliferative activity against ADR-resistant human Bel-7402 cells assessed as reduction in cell viability incubated for 72 hrs by MTT assay; type: functional, cell-based; conditions: Homo sapiens, Bel-7402, 72 h; read-out: IC50
A-431 [2] = assay: Induction of cell cycle arrest in human A-431 cells assessed as accumulation at G2 phase at 30 nM after 48 hrs by propidium iodide staining based flow cytometry (reference value: 7.27%); type: functional
A-431 [3] = assay: Induction of cell cycle arrest in human A-431 cells assessed as accumulation at G1 phase at 15 nM after 48 hrs by propidium iodide staining based flow cytometry (reference value: 41.16%); type: functional
[4] = Aqueous solubility of the compound in aqueous HCl at pH 2 by HPLC-UV analysis; type: physicochemical
MDA-MB-231 = assay: Antiproliferative activity against human MDA-MB-231 cells assessed as reduction in cell viability incubated for 72 hrs by MTT assay; type: functional, cell-based; conditions: MDA-MB-231, 72 h
A-431 [5] = assay: Induction of apoptosis in human A-431 cells assessed as late apoptotic cells at 7.5 nM after 48 hrs by Annexin-V-APC/PI-staining based flow cytometric analysis (reference value: 2.02%); type: functional
A-431 [6] = assay: Cell cycle arrest in human A-431 cells assessed as downregulation of CyclinB1 expression by Western blot analysis; type: functional, cell-based; conditions: dose 7.5-30 nM
[7] = Induction of mitochondria membrane potential loss in human A-431 cells assessed as green fluorescence intensity at 7.5 nM incubated 48 hrs by JC-1 probe based flow cytometry analysis (reference value: 5.98%); type: functional
HUVEC [8] = assay: Antivascular activity in HUVEC assessed as inhibition of migration activity at 30 nM measured after 24 hrs by wound healing based phase contrast microscopic analysis; type: functional, cell-based; conditions: Homo sapiens
A-431 [9] = assay: Induction of cell cycle arrest in human A-431 cells assessed as accumulation at S phase at 7.5 nM after 48 hrs by propidium iodide staining based flow cytometry (reference value: 46.57%); type: functional
A-431 [10] = assay: Induction of apoptosis in human A-431 cells assessed as activation of p53 at 7.5 to 30 nM by western blot analysis; type: functional, cell-based; conditions: dose 7.5-30 nM
A-431 [11] = assay: Induction of apoptosis in human A-431 cells assessed as chromatin condensation at 7.5 to 30 nM incubated for 48 hrs by Hoechst33342 staining based fluorescent microscopy; type: functional, cell-based; conditions: dose 7.5-30 nM
A-431 [12] = assay: Induction of apoptosis in human A-431 cells assessed as upregulation of Bax protein expression by western blot analysis; type: functional, cell-based; conditions: dose 7.5-30 nM
A-431 [13] = assay: Induction of ROS generation in human A-431 cells at 30 nM incubated for 48 hrs by DCFH-DA dye based fluorescence microscopy (reference value: 6.17%); type: functional
[14] = Aqueous solubility of the compound in phosphate buffer at pH 7.4 by HPLC-UV analysis; type: physicochemical
[15] = Resistant index, ratio of IC50 for VCR resistant human K562 cells to IC50 for human K562 cells; type: functional
A-431 [16] = assay: Induction of apoptosis in human A-431 cells assessed as necrotic cells at 30 nM after 48 hrs by Annexin-V-APC/PI-staining based flow cytometric analysis (reference value: 3.79%); type: functional
A-431 [17] = assay: Anti-microtubule activity in human A-431 cells assessed as disruption of microtubule network at 7.5 to 30 nM incubated for 24 hrs by DAPI staining based confocal microscopic analysis; type: functional, cell-based; conditions: dose 7.5-30 nM
HepG2 = assay: cells; conditions: Homo sapiens, HepG2, 72 h
A-431 [18] = assay: Induction of apoptosis in human A-431 cells assessed as activation of caspase 3 by western blot analysis; type: functional, cell-based; conditions: dose 7.5-30 nM
[19] = Metabolic stability in rat plasma assessed as parent compound remaining at 100 nM measured after 3 hrs by HPLC analysis; type: ADME, cell-free; conditions: read-out: Stabilty
[20] = Resistant index, ratio of IC50 for taxol-resistant human HCT-8 cells to IC50 for human HCT-8 cells; type: functional
[21] = Induction of mitochondria membrane potential loss in human A-431 cells assessed as green fluorescence intensity at 30 nM incubated for 48 hrs by JC-1 probe based flow cytometry analysis (reference value: 5.98%); type: functional
HUVEC [22] = assay: Cytotoxicity against HUVEC incubated for 6 hrs by inverted microscopic analysis; type: cell-based; conditions: Homo sapiens
K562/VCR = assay: Antiproliferative activity against VCR resistant human K562/VCR cells assessed as reduction in cell viability incubated for 72 hrs by MTT assay; type: functional, cell-based; conditions: Homo sapiens, K562/VCR, 72 h; read-out: IC50
A-431 [23] = assay: Induction of apoptosis in human A-431 cells assessed as early apoptotic cells at 7.5 nM after 48 hrs by Annexin-V-APC/PI-staining based flow cytometric analysis (reference value: 0.82%); type: functional
A-431 [24] = assay: Induction of apoptosis in human A-431 cells assessed as early apoptotic cells at 30 nM after 48 hrs by Annexin-V-APC/PI-staining based flow cytometric analysis (reference value: 0.82%); type: functional
A-431 [25] = assay: Antiproliferative activity against human A-431 cells assessed as reduction in cell viability incubated for 72 hrs by MTT assay; type: functional, cell-based; conditions: A-431, 72 h
A-431 [26] = assay: Induction of apoptosis in human A-431 cells assessed as necrotic cells at 15 nM after 48 hrs by Annexin-V-APC/PI-staining based flow cytometric analysis (reference value: 3.79%); type: functional
A-431 [27] = assay: Induction of cell cycle arrest in human A-431 cells assessed as accumulation at S phase at 30 nM after 48 hrs by propidium iodide staining based flow cytometry (reference value: 46.57%); type: functional
[28] = n-Octanol/water partition coefficient, logD of the compound incubated for 24 hrs at pH 7.4 by HPLC analysis; type: physicochemical
A-431 [29] = assay: Induction of cell cycle arrest in human A-431 cells assessed as accumulation at S phase at 15 nM after 48 hrs by propidium iodide staining based flow cytometry (reference value: 46.57%); type: functional
A-431 [30] = assay: Anti-microtubule activity in human A-431 cells assessed as cell membrane rounding at 7.5 to 30 nM incubated for 24 hrs by DAPI staining based confocal microscopic analysis; type: functional; conditions: dose 7.5-30 nM
[31] = Toxicity in ICR mouse xenografted with […] cells assessed as effect on body weight at 20 mg/kg/day, iv for 21 days; type: organism-based; conditions: in vivo, 504 h, time 21 day
A-431 [32] = assay: Cell cycle arrest in human A-431 cells assessed as downregulation of p-histone H3 expression by Western blot analysis; type: functional, cell-based; conditions: dose 7.5-30 nM
A-431 [33] = assay: Induction of cell cycle arrest in human A-431 cells assessed as accumulation at G1 phase at 7.5 nM after 48 hrs by propidium iodide staining based flow cytometry (reference value: 41.16%); type: functional
H22 = assay: Antitumor activity against […] xenografted in ICR mouse assessed as reduction in tumor growth at 20 mg/kg/day, iv for 21 days; type: functional, organism-based; conditions: time 21.0 day
[34] = Induction of mitochondria membrane potential loss in human A-431 cells assessed as green fluorescence intensity at 15 nM incubated 48 hrs by JC-1 probe based flow cytometry analysis (reference value: 5.98%); type: functional

IC50 (Bel-7402): 104 nM
solubility [4]: 323 µg/mL (≈ 897 µM)
IC50 (MDA-MB-231): 27 nM
solubility [14]: 76.6 µg/mL (≈ 213 µM)
IC50 (HepG2): 25 nM
remaining at 3 h, 0.1 µM [19]: 91.5%
IC50 (K562/VCR): 205 nM
IC50 (A-431 [25]): 14 nM
logD at 24 h [28]: 1.61
Structure (SMILES): COc1ccc(CNC(=O)c2cc(F)ccc2N2CCOCC2)cc1O
Activity (A-431 [1]): Active
Activity (A-431 [2]): 24.95%
Activity (A-431 [3]): 61.16%
Activity (A-431 [5]): 9.21%
Activity (A-431 [6]): Dose-Dependent Effect
Activity [7]: 26.73%
Activity (HUVEC [8]): Active
Activity (A-431 [9]): 40.02%
Activity (A-431 [10]): Active
Activity (A-431 [11]): Active
Activity (A-431 [12]): Dose-Dependent Effect
Activity (A-431 [13]): 21.99%
Ratio IC50 [15]: 10.8
Activity (A-431 [16]): 7.35%
Activity (A-431 [17]): Active
Activity (A-431 [18]): Dose-Dependent Effect
Ratio IC50 [20]: 5.3
Activity [21]: 65.96%
IC50 (HUVEC [22]): 120 nM
Activity (A-431 [23]): 11.52%
Activity (A-431 [24]): 34.02%
Activity (A-431 [26]): 9.79%
Activity (A-431 [27]): 18.54%
Activity (A-431 [29]): 22.59%
Activity (A-431 [30]): Active
Activity [31]: Non-Toxic
Activity (A-431 [32]): Dose-Dependent Effect
Activity (A-431 [33]): 46.14%
Activity (H22): Active
Activity [34]: 45.4%
